According to patent US8734787B2, “Drug delivery system” (Erydel S.p.A., priority 2009, dated 2014):

How the values were obtained:
human erythrocytes = assay: Loading of recombinant FKBP12 into human erythrocytes (cell recovery, corpuscular indices); conditions: at the three tested concentrations (20, 40 and 80 μM)
Procedure: recombinant FKBP12 was encapsulated into human erythrocytes by means of a procedure of hypotonic dialysis, isotonic resealing and “reannealing” as previously described [Magnani M 1989]. In particular, human red blood cells were obtained from fresh blood collected in heparin from healthy donors and washed with physiologic solution containing Hepes 10 mM (pH 7.4), NaCl 154 mM and Glucose 5 mM to remove leukocytes and platelets. Recovered RBC were re-suspended at 70% haematocrit in physiologic solution, the suspension aliquoted in 3 tubes and rFKBP12 added at increasing concentrations (20, 40, 80 μM/tube). Each erythrocyte suspension was dialysed in dialysis tube with 3.5 kDa cut-off for 90 minutes at 4° C. against 50 volumes of hypotonic solution 60 mOsm containing NaH2PO4 10 mM, NaHCO3 10 mM pH 7.4, glucose 20 mM, GSH 3 mM and ATP 2 mM. At the end of the dialysis step, RBC suspensions were collected and allowed to equilibrate at 37° C. for 5 minutes under gentle stirring. […] RBC corpuscolar indices MCV, Mean Corpuscular Volume, MCH, Mean Corpuscular Haemoglobin and MCHC, Mean Corpuscular Haemoglobin Concentration) were evaluated for both loaded and un-loaded cells at the end of the procedure.

[1] = Preliminary binding studies rFKBP12-FK506 (Dot Blot); conditions: 2.5, 5, 10 μg/well protein
Procedure: the ability of 6His-FKBP12 to bind the FK506 ligand was assessed by a slightly modified Dot Blot analysis. Briefly, 6His-FKBP12 in native conditions was dot-blotted onto a 0.2 μm nitrocellulose membrane at increasing concentrations (2.5, 5, 10 μg/well). Successively, the membrane was subjected to a single incubation step with a solution of Tacrolimus-horseradish peroxidase conjugate (PRO-Trac™ II Tacrolimus 5× Conjugate, DiaSorin, Stillwater, Minn., USA) to allow FKBP12-Tacrolimus binding.

[2] = 10-12 hours post-dose; cited from earlier work
erythrocytes [3] = assay: Literature: distribution of FK506 in blood and RBC binding capacity; assay type: in vitro ADME; conditions: calculated
erythrocytes [4] = conditions: cited from earlier work

Compound: recombinant FKBP12: N-terminal His-tagged recombinant form of human 12-kDa FK506 Binding Protein expressed in E. coli BL21(DE3)
- haemolytic effect (human erythrocytes): does not appear haemolytic
- ability to bind the FK506 ligand [1]: able to bind Tacrolimus in a specific and dose-dependent manner

Compound: C=CC[C@@H]1/C=C(\C)C[C@H](C)C[C@H](OC)[C@H]2O[C@@](O)(C(=O)C(=O)N3CCCC[C@H]3C(=O)O[C@H](/C(C)=C/[C@@H]3CC[C@@H](O)[C@H](OC)C3)[C@H](C)[C@@H](O)CC1=O)[C@H](C)C[C@@H]2OC (relative stereo) [FK506, 3S-[3R*[E(1S*,3S*,4S*)],4S*,5R*,8S*,9E,12R*,14R*,15S*,-16R*,18S*, 19S*,26aR*]]-5,6,8,11,12,13,14,15,16,17,18,19,24,25,26,26a-hexadecahydro-5,19-dihydroxy-3-[2-(4-hydroxy-3-methoxycyclohexyl)-1-methylethenyl]-14,16-dimethoxy-4,10,12,18-tetramethyl-8-(2-propenyl)-15,19-epoxy-3H-pyrido[2,1-c][1,4]oxaazacyclotricosine-1,7,20,21(4H,23H)-tetrone mono-hydrate]
- therapeutic window [2]: 5-20 ng/ml whole blood
- FK506 binding capacity for native RBC (erythrocytes [3]): 0.4 μg/ml RBC 40% Ht
- binding capacity of RBC (erythrocytes [4]): around 440 ng/ml of blood
- fraction in blood associated with erythrocytes (erythrocytes [4]): about 85%
- fraction in blood associated with lymphocytes (erythrocytes [4]): 0.46%
- fraction in blood associated with plasma (erythrocytes [4]): 14%
